This is an account of results in patent US10829778B2, “Plants having increased tolerance to herbicides” (BASF SE, priority 2013, dated 2020).

The subject of test [1] is Rhodococcus HPPD (Seq ID 46). Briefly: HPPD activity assay, wildtype enzyme. Type of test: biochemical. As to conditions: Table 12, normalized to Arabidopsis HPPD; Rhodococcus (Seq ID 46). How it is done:
(§1) HPPD produces homogentisic acid and CO2 from 4-hydroxyphenylpyruvate (4-HPP) and O2. The activity assay for HPPD is based on the analysis of homogentisic acid by reversed phase HPLC.
(§2) The assay mixture can contain 150 mM potassium phosphate buffer pH 7.0, 50 mM L-ascorbic acid, 100 μM Catalase (Sigma-Aldrich), 1 μM FeSO4 and 0.2 units of purified HPPD enzyme in a total volume of 505 μl. 1 unit is defined as the amount of enzyme that is required to produce 1 nmol of HGA per minute at 20° C.
(§3) After a preincubation of 30 min the reaction is started by adding 4-HPP to a final concentration of 0.05 mM. The reaction is allowed to proceed for 45 min at room temperature. The reaction is stopped by the addition of 50 μl of 4.5 M phosphoric acid. The sample is filtered using a […] pore size PVDF filtration device.
(§4) 5 μl of the cleared sample is analyzed on an UPLC HSS T3 column (particle size 1.8 μm, dimensions 2.1×50 mm; Waters) by isocratic elution using 90% 20 mM NaH2PO4 pH 2.2, 10% methanol (v/v).
(§5) HGA is detected electrochemically at 750 mV (mode: DC; polarity: positive) and quantified by integrating peak areas (Empower software; Waters).
Inhibitors are dissolved in DMSO (dimethylsulfoxide) to a concentration of 0.5 mM. From this stock solution serial five-fold dilutions are prepared in DMSO, which are used in the assay. The respective inhibitor solution accounts for 1% of the assay volume. Thus, final inhibitor concentrations range from […], respectively. Activities are normalized by setting the uninhibited enzyme activity to 100%. IC50 values are calculated using non-linear regression.
Using methods which are described in the above examples or well known in the art, purified, recombinant wildtype HPPD enzymes are characterized with respect to their kinetic properties and sensitivity towards HPPD inhibiting herbicides. Apparent michaelis constants (Km) and maximal reaction velocities (Vmax) are calculated by non-linear regression with the software GraphPad Prism 5 (GraphPad Software, La Jolla, USA) using a substrate inhibition model. Apparent kcat values are calculated from Vmax assuming 100% purity of the enzyme preparation. Weighted means (by standard error) of Km and IC50 values are calculated from at least three independent experiments. The Cheng-Prusoff equation for competitive inhibition (Cheng, Y. C.; Prusoff, W. H. Biochem Pharmacol 1973, 22, 3099-3108) is used to calculate dissociation constants (Ki).
(§6) Field performance of the HPPD enzyme, which is used as a herbicide tolerance trait may depend not only on its lack of sensitivity towards HPPD inhibiting herbicides but also on its activity. To assess the potential performance of a herbicide tolerance trait a tolerance index (TI) is calculated using the following formula: […]

Test [2] addresses T1, Arabidopsis HPPD (SEQ ID NO:53) (Arabidopsis thaliana, UniProt P93836).
T1 construct: His6 (N); made in house; host or cells: E. coli BL21 (DE3)
T1 sequence (P93836 1-445): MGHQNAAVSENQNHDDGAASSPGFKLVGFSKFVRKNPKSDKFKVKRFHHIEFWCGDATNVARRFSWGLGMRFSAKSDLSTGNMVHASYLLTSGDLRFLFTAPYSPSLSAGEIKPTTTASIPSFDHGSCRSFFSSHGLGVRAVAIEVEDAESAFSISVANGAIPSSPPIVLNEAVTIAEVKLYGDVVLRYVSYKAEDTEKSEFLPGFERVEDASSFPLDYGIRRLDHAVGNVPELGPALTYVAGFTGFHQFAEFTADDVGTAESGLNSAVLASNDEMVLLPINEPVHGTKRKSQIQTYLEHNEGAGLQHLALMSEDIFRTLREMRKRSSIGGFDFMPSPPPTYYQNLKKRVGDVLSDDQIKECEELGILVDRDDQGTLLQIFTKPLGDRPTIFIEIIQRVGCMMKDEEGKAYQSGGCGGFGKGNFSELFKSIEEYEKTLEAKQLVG
Briefly: HPPD activity assay (HGA by HPLC), wildtype enzyme. Type of test: biochemical. As for the experimental part: as §1, §2, §3, §4, §5
(§7) Inhibitors are dissolved in DMSO (dimethylsulfoxide) to a concentration of 0.5 mM. From this stock solution serial five-fold dilutions are prepared in DMSO, which are used in the assay. The respective inhibitor solution accounts for 1% of the assay volume. […] Activities are normalized by setting the uninhibited enzyme activity to 100%. IC50 values are calculated using non-linear regression.
(§8) Using methods which are described in the above examples or well known in the art, purified, recombinant wildtype HPPD enzymes are characterized with respect to their kinetic properties and sensitivity towards HPPD inhibiting herbicides. Apparent michaelis constants (Km) and maximal reaction velocities (Vmax) are calculated by non-linear regression with the software GraphPad Prism 5 (GraphPad Software, La Jolla, USA) using a substrate inhibition model. […] Weighted means (by standard error) of Km and IC50 values are calculated from at least three independent experiments.
as §6
(§9) Easy comparison and ranking of each trait is enabled by normalizing tolerance indexes on Arabidopsis wild-type HPPD.

Test [3] concerns the target T2, Hordeum HPPD (SEQ ID NO:2) (Hordeum vulgare, UniProt O48604, A164G/R146V/R147D/R148G).
T2 construct: subcloned into a modified pET24D (Novagen) expression vector resulting in N-terminally His-tagged expression constructs; His tag (N); made in house; host or cells: E. coli BL21 (DE3)
The test is described as follows: HPPD activity assay (HGA by HPLC), wildtype enzyme. Format: biochemical. How it is done:
as §1, §2, §3, §4, §5, §7, §8, §6, §9

The subject of test [4] is Synechoccus HPPD. Briefly: HPPD activity assay, wildtype enzyme. Format: biochemical, Synechococcus. As to conditions: Table 12, normalized to Arabidopsis HPPD. How it is done: as §1, §2, §3, §4, §5
(§10) Inhibitors are dissolved in DMSO (dimethylsulfoxide) to a concentration of 0.5 mM. From this stock solution serial five-fold dilutions are prepared in DMSO, which are used in the assay. […] IC50 values are calculated using non-linear regression. […]

For test [5], the system named is Picrophilus HPPD. Briefly: HPPD activity assay, wildtype enzyme. Format: biochemical, Picrophilus torridus. As to conditions: Table 12, normalized to Arabidopsis HPPD. As for the experimental part: as §1, §2, §3, §4, §5, §10
The test system of test [6] is Chlamydomonas HPPD1a. The test is described as follows: HPPD activity assay, wildtype enzyme. Format: biochemical, Chlamydomonas reinhardtii. As to conditions: Table 12, normalized to Arabidopsis HPPD. How it is done: as §1, §2, §3, §4, §5, §10
Test [7] relates to non-transgenic Arabidopsis plants (WT). The test is described as follows: Greenhouse herbicide spray test, Arabidopsis plants (T2). As to conditions: two weeks after treatment. Type of test: in vivo, Arabidopsis thaliana. From the text: For post emergence treatment, the test plants are first grown to a height of 3 to 15 cm, depending on the plant habit, and only then treated with the herbicides. For this purpose, the test plants are either sown directly and grown in the same containers, or they are first grown separately and transplanted into the test containers a few days prior to treatment.
Additionally, T1 and T2 transgenic Arabidopsis plants can be tested for improved tolerance to N-heterocyclyl-arylcarboxamides in a greenhouse studies. Herbicide injury scoring is done 2-3 weeks after treatment and is rated on a scale of 0 to 100%, 0% being no injury and 100% being complete death.

T2 sequence (O48604 whole entry R146V/R147D/R148G/A164G): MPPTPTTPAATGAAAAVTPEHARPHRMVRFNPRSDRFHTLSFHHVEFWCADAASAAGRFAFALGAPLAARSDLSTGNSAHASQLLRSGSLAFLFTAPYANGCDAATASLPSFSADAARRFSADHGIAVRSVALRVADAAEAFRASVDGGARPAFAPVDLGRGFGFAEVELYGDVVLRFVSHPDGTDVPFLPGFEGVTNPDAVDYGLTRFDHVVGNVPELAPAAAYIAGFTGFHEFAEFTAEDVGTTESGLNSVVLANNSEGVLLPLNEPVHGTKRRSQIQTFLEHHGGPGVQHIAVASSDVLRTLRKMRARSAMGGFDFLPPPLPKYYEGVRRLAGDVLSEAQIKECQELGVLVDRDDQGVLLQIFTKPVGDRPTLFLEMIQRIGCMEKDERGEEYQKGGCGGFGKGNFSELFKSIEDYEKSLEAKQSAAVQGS

For orientation: Ki means a dissociation constant, usually derived from enzyme kinetics or from competition with a known ligand. Low values mean tighter binding, high ones weaker binding. As to `Cc1nonc1NC(=O)c1ccc(S(C)(=O)=O)c(S(C)(=O)=O)c1C` [Inhibitor 1, 2-methyl-N-(4-methyl-1,2,5-oxadiazol-3-yl)-3,4-bis(methylsulfonyl)benzamide], the “Normalized tolerance index TI Inhibitor 1” value in test [1] came out at 12.4; in test [2] (Table 12, normalized to Arabidopsis HPPD SEQ ID NO:53 (reference)), 1; in test [2] (Table 15, Arabidopsis HPPD Wildtype (reference)), 1; in test [3] (Table 12, normalized to Arabidopsis HPPD, Hordeum), 1.5; in test [3] (Table 16, Hordeum HPPD Wildtype (reference)), 1; in test [4], 69.9. Also, the “Normalized tolerance index TI Inhibitor 1” value in test [5] was determined as 5.4; in test [6], 1.7. Besides, the Ki was 1.6 nM in test [2] and 5.6 nM in test [3]. Moreover, the “TI (tolerance index)” value in test [2] (not normalized, Table 11, Arabidopsis enzyme) came to 1.6E−3; in test [3] (not normalized, Table 11, Hordeum enzyme) it was 2.5E−3. Further, the Injury evaluation in test [7] (WT (control of AtHPPD events), 1.56 g/ha) came to 92%; in test [7] (WT (control of AtHPPD events), 3.125 g/ha) it was 91%; in test [7] (WT (control of AtHPPD events), 6.25 g/ha) it was 97%; in test [7] (WT (control of AtHPPD events), 12.5 g/ha) it was 97%; in test [7] (WT (control of HvHPPD events), 1.56 g/ha), 98%; in test [7] (WT (control of HvHPPD events), 3.125 g/ha), 98%. The Injury evaluation in test [7] (WT (control of HvHPPD events), 6.25 g/ha) amounted to 100%; in test [7] (WT (control of HvHPPD events), 12.5 g/ha) it was 100%.
